The results in this text go back to patent US6444696B1, “Pyrazole derivatives P38 MAP kinase inhibitors” (Syntex (U.S.A.) LLC, priority 1998, dated 2002).

Counter-ions that a name gives are not always drawn.

Consider `Nc1c(C(=O)c2cccc(C#Cc3cccnc3)c2)cnn1-c1ccc(F)cc1F` [compound 88, 5-amino-1-(2,4-difluorophenyl)-4-[3-(3-pyridylethynyl)benzoyl]pyrazole], for which the melting point was 183.5 to 184 °C.
The value for `Nc1c(C(=O)c2cccc(C#CC3(O)CCCC3)c2)cnn1-c1ccc(F)cc1F` [compound 94, 5-amino-1-(2,4-difluorophenyl)-4-[3-{2-(1-hydroxycyclopentyl)ethynyl}benzoyl]pyrazole] was 176.8 to 177.1 °C; that for `Nc1c(C(=O)c2cccc(CCC3(O)CCCC3)c2)cnn1-c1ccc(F)cc1F` [compound 95, 5-amino-1-(2,4-difluorophenyl)-4-[3-{2-(1-hydroxycyclopentyl)ethyl}benzoyl]pyrazole] was 120.3 to 121 °C; that for `Nc1c(C(=O)c2cccc(OCC(=O)N3CCOCC3)c2)cnn1-c1ccc(F)cc1` [compound 35, 5-amino-1-(4-fluorophenyl)-4-[3-(morpholin-4-ylcarbonylmethyloxy)benzoyl]pyrazole] was 124.3 to 126.6 °C.
With `CC(=O)OCC(COc1cccc(C(=O)c2cnn(-c3ccc(F)cc3)c2N)c1)OC(C)=O` (stereo in doubt) [compound 165, 5-amino-1-(4-fluorophenyl)-4-[3-{2(S),3-(diacetoxy)propoxy}benzoyl]pyrazole] the figure was 91.4 to 92.7 °C; with `Nc1c(C(=O)c2cccc(CN3CCOCC3)c2)cnn1-c1ccc(F)cc1F` [compound 131], 127.3 to 128.5 °C; with `COc1cccc(-n2ncc(C(=O)c3cccc(-c4cccnc4)c3)c2N)c1` (as salt: HCl) [compound 66, 5-amino-1-(3-methoxyphenyl)-4-[3-(pyridin-3-yl)benzoyl]pyrazole], 256.1 to 256.5 °C.
The value for `COC(=O)OCC(COc1cccc(C(=O)c2cnn(-c3ccc(F)cc3)c2N)c1)OC(=O)OC` (stereo in doubt) [compound 168, 5-amino-1-(4-fluorophenyl)-4-[3-{2(S),3-(dimethoxycarbonyloxy)propoxy}benzoyl]pyrazole] was 62 to 65 °C; that for `CCNC(=O)Oc1cccc(C(=O)c2cnn(-c3ccc(F)cc3)c2N)c1` was 201.2 to 202.8 °C.
The compound `CCC1(CC)OC[C@H](COc2cccc(C(=O)c3cnn(-c4ccc(F)cc4)c3N)c2)O1` [compound 173, 5-amino-1-(4-fluorophenyl)-4-{3-[(2,2-diethyl-1,3-dioxolan-4(S)-yl)methoxy]benzoyl}pyrazole] had a melting point of 74.1 to 75.7 °C.
The compound `Nc1c(C(=O)c2cccc(OCc3ccccn3)c2)cnn1-c1ccc(F)cc1` [compound 82, 5-amino-1-(4-fluorophenyl)-4-[3-(pyridin-2-ylmethoxy)benzoyl]pyrazole] registered a melting point of 176.1 to 177.3 °C.
The compound `Nc1c(C(=O)c2cccc(OCCn3ncccc3=O)c2)cnn1-c1ccc(F)cc1` [compound 128] gave a melting point of 174.5 to 178 °C.
The value for `Nc1c(C(=O)c2cccc(OCCN3CCOCC3)c2)cnn1-c1ccccc1F` [compound 97, 5-amino-1-(2-fluorophenyl)-4-[3-(2-morpholin-4-ylethoxy)benzoyl]pyrazole] was 130.8 to 135.1 °C.
For `CN1CCN(CCCc2cccc(C(=O)c3cnn(-c4ccc(F)cc4)c3N)c2)CC1` (as salt: HCl) [compound 30, 5-amino-1-(4-fluorophenyl)-4-{3-[3-(4-methylpiperazin-1-yl)propyl]benzoyl}pyrazole], the melting point fell in the range of 254.5 to 254.9 °C.
With `CCC1(C)OC[C@H](COc2cccc(C(=O)c3cnn(-c4ccc(F)cc4)c3N)c2)O1` (stereo partly drawn) [compound 174, 5-amino-1-(4-fluorophenyl)-4-{3-[(2-methyl-2-ethyl-1,3-dioxolan-4(S)-yl)methoxy]benzoyl}pyrazole] the figure was 81.1 to 83 °C.

Usually melting point stands for the temperature of the solid-liquid transition.
